# Measured values reported in US6008395A, “Platinum (IV) complex, production process thereof and carcinostatic agent containing the same” (priority 1995, dated 1999).
# Read-outs that look alike come from different tables or passages of the source.
# Columns and labels:
# [1] = Stability in an aqueous solution of hydrochloric acid, half life; type: physicochemical; conditions: 37° C., 50 μM complex, in the dark
# Procedure: Stability of each of the thus obtained complexes in an aqueous solution of hydrochloric acid at 37° C. is shown below in terms of its half life.
# The measurement was carried out at a complex concentration of 50 μM at 37° C. in the dark.
# [2] = In vitro reduction by an ascorbic acid salt, half life; type: physicochemical; conditions: 50 μM complex, pH 7.5 (50 mM HEPES-NaOH), 37° C., dark; for Half life (reduction), 5 mM: 5 mM ascorbic acid salt; for Half life (reduction), 100 mM: 100 mM ascorbic acid salt
# Procedure: Test results of the in vitro reduction of the thus obtained complexes by an ascorbic acid salt are shown below in terms of half life.
# The measurement was carried out at a complex concentration of 50 μM, pH 7.5 (50 mM HEPES-NaOH buffer), at 37° C. in the dark.
# L 1210 [3] = type: in vivo, CDF1 mouse; conditions: days 1, 5 and 9; for T/C %: 125 or more judged effective
# Procedure: ip: On the day 0, L 1210 (10^5 cells/mouse) was transplanted into the abdominal cavity of each CDF1 mouse, and each of the platinum complexes was intraperitoneally administered on the day 1, day 5 and day 9 (Q04D×03). Using 5 animals in one group, T/C % (T: treated, C: control) is calculated from survived days. A T/C % value of 125 or more was judged effective. The number of survived (or tumor bearing) animals is shown as n/5. A total of 10 mice were used in the control.
# Carcinostatic effect ip--ip, L 1210, three administrations on days 1, 5 and 9
# L 1210 (10^5 cells/mouse), one group=5 CDF1 mice, ip administration on the days 1, 5 and 9.
# L 1210 [4] = assay: (Oral) carcinostatic effect L 1210, ip-po; type: in vivo, CDF1 mouse; conditions: Q02D×05, suspension in olive oil, 140% or more judged effective
# Procedure: po: On the day 0, L 1210 (10^5 cells/mouse) was transplanted into the abdominal cavity of each CDF1 mouse, and each of the platinum complexes was orally administered on the day 1, day 3, day 5, day 7 and day 9 (Q02D×05), or on the day 1 to day 5 (Q01D×05). The oral administration was carried out with a 10, 7.5 or 5 times higher dose than the optimum amount of each platinum complex by ip (T/C % of ip; 100 mg/kg, 75 mg/kg or 50 mg/kg, respectively). A value of 140% or more was judged effective.
# (Oral) carcinostatic effect L 1210, ip-po, every two days Q02D×05
# L 1210 (10^5 cells/mouse); one group=5 CDF1 mice; Suspension in olive oil was administered into the stomach through a catheter.
# [5] = Behaviour in strongly acidic gastric juice (1 N HCl, pH 0.1); type: physicochemical; conditions: orally administered
# [6] = clinical trial; cited from earlier work
Compound,"Half life, 0.05 M HCl [1]","Half life, 1 M HCl [1] [h]","Half life (reduction), 5 mM [2] [h]","Half life (reduction), 100 mM [2] [min]",T/C % (L 1210 [3]; 25 mg/kg ip) [%],number of survived (or tumor bearing) animals (n/5) (L 1210 [3]; 50 mg/kg ip),T/C % (L 1210 [3]; 50 mg/kg ip) [%],T/C % (L 1210 [3]; 100 mg/kg ip) [%],T/C % (L 1210 [4]; 2.5 mg/kg po) [%],T/C % (L 1210 [4]; 5 mg/kg po) [%],T/C % (L 1210 [4]; 10 mg/kg po) [%],T/C % (L 1210 [4]; 15 mg/kg po) [%],one carboxylic acid substituted by Cl [5],number of survived (or tumor bearing) animals (n/5) (L 1210 [3]; 25 mg/kg ip),clinical development / side effects [6],T/C % (L 1210 [3]; 12.5 mg/kg ip) [%]
"CCCCC(=O)[O-].NC1CCCCC1N.O=C([O-])C(=O)[O-].[Cl-].[Pt+4] [C5--OHP · Cl, t,t,c,c-[PtCl(OCOC4 H9)(ox)(1R,2R-dach)]]",> 50 h,7.4,0.8,< 6,168,4/5,283,88,140,214,143,60,,,,
"CCCCC(=O)O.CCCCC(=O)O.N[C@@H]1CCCC[C@H]1N.O=C(O)C(=O)O.[Pt] [Complex C5-OHP, t,c,c-[Pt (OCOC4 H9)2 (ox) (1R,2R-dach)]]",,,,,,,,,,,,,gradually substituted by Cl,,,
"CCCCC(=O)[O-].NC1CCCCC1N.O=C([O-])C(=O)[O-].[Br-].[Pt+4] [C5--OHP · Br, t,t,c,c-[PtBr(OCOC4 H9)(ox)(1R,2R-dach)]]",,,,,395,,107,,,160,163,73,,4/5,,
"CCCCCC(=O)[O-].CCCCCC(=O)[O-].NC1CCCCC1N.O=C([O-])C(=O)[O-].[Pt+4] [Complex C6-ORP, t,c,c-[Pt (OCOC5 H11)2 (ox) (1R,2R-dach)]]",,,,,,,,,,,,,gradually substituted by Cl,,,
N[C@@H]1CCCC[C@H]1N.[Cl][Pt+2]([Cl])([Cl])[Cl] [tetraplatin],,,,,,,,,,,,,,,"clinical development has been suspended due to the side effects, such as toxicity",
"CCCC(=O)[O][Pt]12([O]C(=O)CCC)([NH]C3CCCCC3[NH]1)[O]C(=O)C(=O)[O]2 [Complex C4-OHP, t,c,c-[Pt (OCOC3 H7)2 (ox) (1R,2R-dach)]]",,,,,,,,,,,,,gradually substituted by Cl,,,
"CCCCCC(=O)[O-].NC1CCCCC1N.O=C([O-])C(=O)[O-].[Cl-].[Pt+4] [C6--OHP · Cl, [PtCl (OCOC5 H11) (oxalato) (1R,2R-dach)]]",N.D. (significant decrease in concentration was not observed),8.9,1.2,< 6,173,1/5,280,80,143,191,168,98,,,,
"CCCC(=O)[O-].NC1CCCCC1N.O=C([O-])C(=O)[O-].[Cl-].[Pt+4] [C4--OHP · Cl, [PtCl(OCOC3 H7) (oxalato) (lR,2R-dach)]]",> 50 h,6.1,0.6,< 6,145,,195,63,,,,,,,,130
CCCCCC(=O)[O-].NC1CCCCC1N.O=C([O-])C(=O)[O-].[Br-].[Pt+4] [C6--OHP · Br],,,,,373,,96,69,,173,180,88,,4/5,,
"CCCCCCC(=O)[O-].NC1CCCCC1N.O=C([O-])C(=O)[O-].[Cl-].[Pt+4] [C7--OHP · Cl, [PtCl(OCOC6 H13) (oxalato) (1R,2R-dach)]]",N.D. (significant decrease in concentration was not observed),11.3,1.6,< 6,137,,176,,117,129,151,,,,,122
